According to ChEMBL document CHEMBL5729389, “1,4-diphenyl-1H-imidazole and 2,4-diphenylthiazole derivatives and preparation method therefor and use thereof” (2022):
pEC50: −log10 of the molar value.

Each compound was assayed against Toll-like receptor 1/2 (Homo sapiens, UniProt O60603+Q15399) (assay: TBD: TBD).
Assay type: protein-complex assay

Toll-like receptor 1/2, sequence (O60603 whole entry): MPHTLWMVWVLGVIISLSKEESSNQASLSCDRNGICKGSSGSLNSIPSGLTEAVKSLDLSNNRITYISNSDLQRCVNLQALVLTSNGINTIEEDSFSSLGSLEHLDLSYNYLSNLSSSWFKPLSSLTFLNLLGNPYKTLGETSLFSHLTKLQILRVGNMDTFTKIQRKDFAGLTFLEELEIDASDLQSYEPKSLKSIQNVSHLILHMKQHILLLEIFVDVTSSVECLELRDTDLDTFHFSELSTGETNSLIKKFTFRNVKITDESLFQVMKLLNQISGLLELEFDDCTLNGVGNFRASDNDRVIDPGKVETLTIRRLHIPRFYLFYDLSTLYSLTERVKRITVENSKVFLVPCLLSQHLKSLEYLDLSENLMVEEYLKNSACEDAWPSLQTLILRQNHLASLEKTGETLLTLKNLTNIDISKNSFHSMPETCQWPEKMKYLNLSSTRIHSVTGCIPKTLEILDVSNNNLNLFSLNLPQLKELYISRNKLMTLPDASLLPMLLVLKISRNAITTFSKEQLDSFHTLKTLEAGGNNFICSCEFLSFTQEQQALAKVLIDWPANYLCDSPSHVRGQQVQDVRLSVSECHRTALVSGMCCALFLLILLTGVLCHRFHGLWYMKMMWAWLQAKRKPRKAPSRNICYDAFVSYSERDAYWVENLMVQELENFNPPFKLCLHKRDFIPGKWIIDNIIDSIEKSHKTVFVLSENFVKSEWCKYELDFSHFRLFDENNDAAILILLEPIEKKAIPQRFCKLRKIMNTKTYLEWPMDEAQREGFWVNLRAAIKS
Toll-like receptor 1/2, sequence (Q15399 whole entry): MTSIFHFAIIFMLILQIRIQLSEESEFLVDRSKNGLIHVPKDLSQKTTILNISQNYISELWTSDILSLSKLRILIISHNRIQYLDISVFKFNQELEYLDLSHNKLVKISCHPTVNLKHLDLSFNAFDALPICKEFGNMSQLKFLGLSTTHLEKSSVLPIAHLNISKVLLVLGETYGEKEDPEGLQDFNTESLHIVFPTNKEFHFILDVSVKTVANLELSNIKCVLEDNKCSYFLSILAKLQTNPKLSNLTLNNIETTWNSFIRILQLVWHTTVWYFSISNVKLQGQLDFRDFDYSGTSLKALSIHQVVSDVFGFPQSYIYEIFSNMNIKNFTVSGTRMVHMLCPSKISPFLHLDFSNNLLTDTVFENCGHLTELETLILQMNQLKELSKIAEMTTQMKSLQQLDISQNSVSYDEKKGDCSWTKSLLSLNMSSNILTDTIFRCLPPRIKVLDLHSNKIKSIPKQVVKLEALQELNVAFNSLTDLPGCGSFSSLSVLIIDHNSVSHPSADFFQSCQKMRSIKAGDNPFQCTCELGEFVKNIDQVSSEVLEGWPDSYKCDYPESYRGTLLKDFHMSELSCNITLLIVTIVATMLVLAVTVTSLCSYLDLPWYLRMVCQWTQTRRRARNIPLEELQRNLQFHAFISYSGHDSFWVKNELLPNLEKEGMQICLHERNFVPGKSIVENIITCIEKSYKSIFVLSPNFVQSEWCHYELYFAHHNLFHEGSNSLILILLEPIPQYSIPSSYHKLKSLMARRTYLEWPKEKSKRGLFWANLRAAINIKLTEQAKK

**Q.** With `FC(F)(F)c1ccc(-c2csc(-c3ccc(C(F)(F)F)cc3)n2)cc1` as the compound, how does the pEC50 read?
**A.** The pEC50 was < 6.00.

**Q.** `Oc1cc(C(F)(F)F)ccc1-c1csc(-c2ccc(C(F)(F)F)cc2)n1` was tested. Which pEC50 did it give?
**A.** The pEC50 was < 6.00.

**Q.** `COc1ccc(-c2nc(-c3ccc(C(F)(F)F)cc3O)cs2)cc1` was tested. Which pEC50 did it give?
**A.** The pEC50 was < 6.00.

**Q.** `O=[N+]([O-])c1ccc(-c2nc(-c3ccc(C(F)(F)F)cc3)cs2)cc1` was tested. Which pEC50 did it give?
**A.** The pEC50 was < 6.00.

**Q.** With `CNc1ccc([N+](=O)[O-])cc1-n1cnc(-c2ccc(C(F)(F)F)cc2OCCN)c1` as the compound, how does the pEC50 read?
**A.** The pEC50 was < 6.00.

**Q.** With `CNc1ccc([N+](=O)[O-])cc1-n1cnc(-c2ccc(C(F)(F)F)cc2OS(=O)(=O)O)c1` as the compound, how does the pEC50 read?
**A.** The pEC50 was 7.31.

**Q.** With `O=[N+]([O-])c1ccc(Cl)c(-c2nc(-c3ccc(C(F)(F)F)cc3O)cs2)c1` as the compound, how does the pEC50 read?
**A.** The pEC50 was < 6.00.
